# From US20230146675A1, “PYRIMIDO[5,4-d]PYRIMIDINE DERIVATIVES AS ENT INHIBITORS FOR THE TREATMENT OF CANCERS, AND COMBINATION THEREOF WITH ADENOSINE RECEPTOR ANTAGONISTS” (ITEOS BELGIUM SA, priority 2020, published 2023)
# Target: T1, human ENT1 (Homo sapiens, UniProt Q99808)
# T1 sequence (Q99808 1-456): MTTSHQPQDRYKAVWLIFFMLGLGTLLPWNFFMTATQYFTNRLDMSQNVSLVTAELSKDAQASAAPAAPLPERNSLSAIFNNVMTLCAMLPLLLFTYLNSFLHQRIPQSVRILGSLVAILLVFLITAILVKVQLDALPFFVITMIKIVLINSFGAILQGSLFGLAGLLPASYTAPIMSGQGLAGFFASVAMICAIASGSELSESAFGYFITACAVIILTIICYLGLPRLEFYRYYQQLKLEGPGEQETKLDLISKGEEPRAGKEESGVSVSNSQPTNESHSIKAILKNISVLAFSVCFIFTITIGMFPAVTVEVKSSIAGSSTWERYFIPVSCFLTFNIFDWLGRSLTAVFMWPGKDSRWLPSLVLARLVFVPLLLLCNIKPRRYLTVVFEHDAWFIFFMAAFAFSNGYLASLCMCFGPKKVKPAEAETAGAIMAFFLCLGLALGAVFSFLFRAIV
# Assay: ENT1 binding assay (competition with Sahenta-DY647 on JAR cells)
# Design: JAR cells expressing ENT1 were bought from ATCC; host or cells: JAR cells
# Details: binned IC50
# Outline: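 JAR cells were incubated with test compounds and the fluorescent ligand Sahenta-DY647 in competition. Plates were washed twice by centrifugation (4 min, 400 rcf, 4 °C). Binding potency was derived from the final fluorescence.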
row,IC50,SMILES
1,100 to 500 nM,"COCCN(CCOC)c1nc(N2CCC(OC)CC2)c2nc(N(CCOC)CCOC)nc(N(C)CCO)c2n1 [Compound 112, 2-((2,6-bis(bis(2-methoxyethyl)amino)-8-(4-methoxypiperidin-1-yl)pyrimido[5,4-d]pyrimidin-4-yl)(methyl)amino)ethanol]"
2,< 100 nM,"COCCN(CCOC)c1nc(N2CCC(OC)CC2)c2nc(N(CCOC)CCOC)nc(NCc3cccc(C#N)c3)c2n1 [Compound 145, 3-(((2,6-bis(bis(2-methoxyethyl)amino)-8-(4-methoxypiperidin-1-yl)pyrimido[5,4-d]pyrimidin-4-yl)amino)methyl)benzonitrile]"
3,500 to 1000 nM,"COCCN(CCOC)c1nc(N2CCN(c3ncn(C)n3)CC2)c2nc(N(CCOC)CCOC)nc(N(C)Cc3cccc(S(C)(=O)=O)c3)c2n1 [Compound 246, N2,N2,N6,N6-tetrakis(2-methoxyethyl)-N4-methyl-8-(4-(1-methyl-1H-1,2,4-triazol-3-yl)piperazin-1-yl)-N4-(3-(methylsulfonyl)benzyl)pyrimido[5,4-d]pyrimidine-2,4,6-triamine]"
4,500 to 1000 nM,"COCCN(CCOC)c1nc(N2CCC(OC)CC2)c2nc(N(CCOC)CCC(N)=O)nc(N3CCC(OC)CC3)c2n1 [Compound 197, 3-((6-(bis(2-methoxyethyl)amino)-4,8-bis(4-methoxypiperidin-1-yl)pyrimido[5,4-d]pyrimidin-2-yl)(2-methoxyethyl)amino)propanamide]"
5,< 100 nM,"COCCN(CCOC)c1nc(N2CCC(OC)CC2)c2nc(N(CCOC)CCOC)nc(NCc3ccc(Cl)c(C#N)c3)c2n1 [Compound 150, 5-(((2,6-bis(bis(2-methoxyethyl)amino)-8-(4-methoxypiperidin-1-yl)pyrimido[5,4-d]pyrimidin-4-yl)amino)methyl)-2-chlorobenzonitrile]"
6,< 100 nM,"COCCN(CCOC)c1nc(N2CCC(OC)CC2)c2nc(N(CCOC)CCOC)nc(OCc3cccc(OC)c3)c2n1 [Compound 153, 4-((3-methoxybenzyl)oxy)-N2,N2,N6,N6-tetrakis(2-methoxyethyl)-8-(4-methoxypiperidin-1-yl)pyrimido[5,4-d]pyrimidine-2,6-diamine]"
7,500 to 1000 nM,"COCCN(CCOC)c1nc(N2CCC(OC)CC2)c2nc(N(CCOC)CCOC)nc(NCc3cccnc3)c2n1 [Compound 62, N2,N2,N6,N6-tetrakis(2-methoxyethyl)-8-(4-methoxypiperidin-1-yl)-N4-(pyridin-3-ylmethyl)pyrimido[5,4-d]pyrimidine-2,4,6-triamine]"
8,500 to 1000 nM,"COCCN(CCOC)c1nc(N2CCC(OC)CC2)c2nc(N(CCOC)CCOC)nc(NCCc3cnc[nH]3)c2n1 [Compound 95, N4-(2-(1H-imidazol-5-yl)ethyl)-N2,N2,N6,N6-tetrakis(2-methoxyethyl)-8-(4-methoxypiperidin-1-yl)pyrimido[5,4-d]pyrimidine-2,4,6-triamine]"
9,100 to 500 nM,"COCCN(CCOC)c1nc(N2CCC(OC)CC2)c2nc(N(CCOC)CCOC)nc(NCc3cccc(S(C)(=O)=O)c3)c2n1 [Compound 148, N2,N2,N6,N6-tetrakis(2-methoxyethyl)-8-(4-methoxypiperidin-1-yl)-N4-(3-(methylsulfonyl)benzyl)pyrimido[5,4-d]pyrimidine-2,4,6-triamine]"
10,< 100 nM,"COCCN(CCOC)c1nc(N2CCCCC2)c2nc(N(CCO)CCO)nc(N3CCN(c4nccs4)CC3)c2n1 [Compound 39, 2,2′-((6-(bis(2-methoxyethyl)amino)-8-(piperidin-1-yl)-4-(4-(thiazol-2-yl)piperazin-1-yl)pyrimido[5,4-d]pyrimidin-2-yl)azanediyl)diethanol]"
11,100 to 500 nM,"CCN(CCN1CCCCC1)c1nc(N2CCN(C)C(=O)C2)c2nc(N(CCOC)CCOC)nc(N3CCC(OC)CC3)c2n1 [Compound 272, 4-(6-(bis(2-methoxyethyl)amino)-2-(ethyl(2-(piperidin-1-yl)ethyl)amino)-8-(4-methoxypiperidin-1-yl)pyrimido[5,4-d]pyrimidin-4-yl)-1-methylpiperazin-2-one]"
12,< 100 nM,"COCCN(CCOC)c1nc(N2CCS(=O)(=O)CC2)c2nc(N(CCOC)CCOC)nc(N3CCC(OC)CC3)c2n1 [Compound 77, 4-(2,6-bis(bis(2-methoxyethyl)amino)-8-(4-methoxypiperidin-1-yl)pyrimido[5,4-d]pyrimidin-4-yl)thiomorpholine 1,1-dioxide]"
13,100 to 500 nM,"COCCN(CCOC)c1nc(N2CCC(OC)CC2)c2nc(N(CCOC)CCOC)nc(NCC3CCCC3)c2n1 [Compound 55, N4-(cyclopentylmethyl)-N2,N2,N6,N6-tetrakis(2-methoxyethyl)-8-(4-methoxypiperidin-1-yl)pyrimido[5,4-d]pyrimidine-2,4,6-triamine]"
14,< 100 nM,"COCCN(CCOC)c1nc(N2CCn3ncnc3C2)c2nc(N(CCOC)CCOC)nc(N3CCN(C)C(=O)C3)c2n1 [Compound 5, 4-(2,6-bis(bis(2-methoxyethyl)amino)-8-(5,6-dihydro-[1,2,4]triazolo[1,5-a]pyrazin-7(8H)-yl)pyrimido[5,4-d]pyrimidin-4-yl)-1-methylpiperazin-2-one]"
15,100 to 500 nM,"COCCN(CCOC)c1nc(N2CC(C)(C)C2)c2nc(N(CCOC)CCOC)nc(N3CCC(OC)CC3)c2n1 [Compound 100, 4-(3,3-dimethylazetidin-1-yl)-N2,N2,N6,N6-tetrakis(2-methoxyethyl)-8-(4-methoxypiperidin-1-yl)pyrimido[5,4-d]pyrimidine-2,6-diamine]"
16,100 to 500 nM,"COCCN(CCO)c1nc(N2CCN(C)C(=O)C2)c2nc(N(CCO)CCOC)nc(N3CCC(OC)CC3)c2n1 [Compound 306, 4-(2,6-bis((2-hydroxyethyl)(2-methoxyethyl)amino)-8-(4-methoxypiperidin-1-yl)pyrimido[5,4-d]pyrimidin-4-yl)-1-methylpiperazin-2-one]"
17,100 to 500 nM,"COCCN(CCOC)c1nc(N2CCC(OC)CC2)c2nc(N(CCOC)CCOC)nc(NCC3CCOCC3)c2n1 [Compound 46, N2,N2,N6,N6-tetrakis(2-methoxyethyl)-8-(4-methoxypiperidin-1-yl)-N4-((tetrahydro-2H-pyran-4-yl)methyl)pyrimido[5,4-d]pyrimidine-2,4,6-triamine]"
18,< 100 nM,"COCCN(CCOC)c1nc(N2CCN(C)C(=O)C2)c2nc(N(CCOC)CCOC)nc(N(C)Cc3cccc(OC)c3)c2n1 [Compound 235, 4-(2,6-bis(bis(2-methoxyethyl)amino)-8-((3-methoxybenzyl)(methyl)amino)pyrimido[5,4-d]pyrimidin-4-yl)-1-methylpiperazin-2-one]"
19,500 to 1000 nM,"COCCN(CCOC)c1nc(N2CCN(c3ncn(C)n3)CC2)c2nc(N(CCOC)CCOC)nc(N(C)Cc3ccc(F)c(C#N)c3)c2n1 [Compound 245, 5-(((2,6-bis(bis(2-methoxyethyl)amino)-8-(4-(1-methyl-1H-1,2,4-triazol-3-yl)piperazin-1-yl)pyrimido[5,4-d]pyrimidin-4-yl)(methyl)amino)methyl)-2-fluorobenzonitrile]"
20,< 100 nM,"COCCN(CCOC)c1nc(N2C[C@@H](C)O[C@@H](C)C2)c2nc(N(CCOC)CCOC)nc(N3CCC(OC)CC3)c2n1 [Compound 110, 4-((2R,6S)-2,6-dimethylmorpholino)-N2,N2,N6,N6-tetrakis(2-methoxyethyl)-8-(4-methoxypiperidin-1-yl)pyrimido[5,4-d]pyrimidine-2,6-diamine]"
21,< 100 nM,"COCCN(CCOC)c1nc(N2CCC(OC)CC2)c2nc(N(CCO)CCO)nc(N3CC(=O)N(C)C(=O)C3)c2n1 [Compound 307, 4-(2-(bis(2-hydroxyethyl)amino)-6-(bis(2-methoxyethyl)amino)-8-(4-methoxypiperidin-1-yl)pyrimido[5,4-d]pyrimidin-4-yl)-1-methylpiperazine-2,6-dione]"
22,100 to 500 nM,"COCCN(CCOC)c1nc(N2CCC(OC)CC2)c2nc(N(CCOC)CCOC)nc(N(C)Cc3ccncc3)c2n1 [Compound 82, N2,N2,N6,N6-tetrakis(2-methoxyethyl)-8-(4-methoxypiperidin-1-yl)-N4-methyl-N4-(pyridin-4-ylmethyl)pyrimido[5,4-d]pyrimidine-2,4,6-triamine]"
23,500 to 1000 nM,"COCCN(CCOC)c1nc(N2CC[C@@H](O)C2)c2nc(N(CCOC)CCOC)nc(N3CCC(OC)CC3)c2n1 [Compound 93, (R)-1-(2,6-bis(bis(2-methoxyethyl)amino)-8-(4-methoxypiperidin-1-yl)pyrimido[5,4-d]pyrimidin-4-yl)pyrrolidin-3-ol]"
24,100 to 500 nM,"COCCN(CCOC)c1nc(N2CCN(C)C(=O)C2)c2nc(N(CCO)CCOC)nc(N3CCC(OC)CC3)c2n1 [Compound 276, 4-(2-(bis(2-methoxyethyl)amino)-6-((2-hydroxyethyl)(2-methoxyethyl)amino)-8-(4-methoxypiperidin-1-yl)pyrimido[5,4-d]pyrimidin-4-yl)-1-methylpiperazin-2-one]"
25,500 to 1000 nM,"COCCN(CCOC)c1nc(N2CCN(c3cnccn3)CC2)c2nc(N(CCOC)CCOC)nc(N3CCC(OC)CC3)c2n1 [Compound 120, N2,N2,N6,N6-tetrakis(2-methoxyethyl)-4-(4-methoxypiperidin-1-yl)-8-(4-(pyrazin-2-yl)piperazin-1-yl)pyrimido[5,4-d]pyrimidine-2,6-diamine]"
26,500 to 1000 nM,"COCCN(CCOC)c1nc(N2CCC(OC)CC2)c2nc(N(CCOC)CCOC)nc(N3CCC(COC)CC3)c2n1 [Compound 76, N2,N2,N6,N6-tetrakis(2-methoxyethyl)-4-(4-(methoxymethyl)piperidin-1-yl)-8-(4-methoxypiperidin-1-yl)pyrimido[5,4-d]pyrimidine-2,6-diamine]"
